Reference: patent publication US20080262228A1, “Metabolites of 5-fluoro-8- quinoline and methods of preparation and uses thereof” (Wyeth, priority 2006, published 2008)
Counter-ions that a name gives are not always drawn.

What was measured:
[1] = Metabolite profiling in liver microsomes and S9; format: in vitro ADME, rat, dog, monkey, human; conditions: liver microsomes and S9, 10 μM COMPOUND I, 30 min; species letters not defined
Procedure: Microsomal incubations for metabolite profiling were similar to those described above for intrinsic clearance determination (see Table 1). Aliquots of COMPOUND I (10 μL), dissolved in DMSO:methanol (1:9), were added to a 96-well plate containing phosphate buffer, and MgCl2 and the liver microsomes at 37° C. using the same automation apparatus as for the stability study described hereinabove. The reactions were initiated by the addition of the UDPGA and NADPH generating system. The final incubation volume for all samples was 1 mL and the length of incubation was 30 min. […] Three 250 μL aliquots were transferred to a 96-well plate containing 900 μL acetonitrile to precipitate the protein. […] The samples were then reconstituted in 150 μL of 20% methanol in water. The three aliquots for each sample were pooled and analyzed by LC/MS.
S9 incubation buffer and cofactors were chosen to allow N-acetylation and carbamoyl glucuronidation in addition to oxidative and glucuronidation pathways possible in liver microsomes. Incubations of sulfamethazine and SCA-136 with liver S9 were used as positive controls for N-acetylation and carbamoyl glucuronidation, respectively. Following a 30 min. incubation, 750 μL from each sample were added to 900 μL acetonitrile. Following centrifugation and evaporation of the supernatant, the samples were reconstituted in 450 μL of 20% methanol in water for analysis by HPLC/UV and LC/MS (see below).
The HPLC system used for mass spectrometric analysis was an Agilent 1100 HPLC (Agilent Technologies, Palo Alto, Calif.) equipped with a binary pump and a diode array UV detector. The UV detector was set to monitor 190-400 nm. Separations were accomplished on a Luna C18 column (150×2.1 mm, 5 μm) (Phenomenex Incorporated, Torrance, Calif.).
The mass spectrometer used for metabolite characterization was a Finnigan LCQ Deca ion trap mass spectrometer (Thermo Electron Corp.). […] Full scan and data dependent MS2 and MS3 mass spectra were recorded. Finnigan Xcalibur software (version 1.3) was used for control of equipment and recording of data from UV and LC/MS analyses.
Chromatographic profiles of COMPOUND I (10 μM) metabolites in incubations with liver microsomes in the presence of NADPH are presented in FIG. 1. Chromatographic profiles of COMPOUND I (10 μM) metabolites in incubations with liver microsomes in the presence of NADPH and UDPGA are presented in FIG. 2. Chromatographic profiles of COMPOUND I (10 μM) metabolites in incubations with liver S9 in the presence of NADPH, UDPGA and acetyl coenzyme A (CoA) are presented in FIG. 3. In incubations containing NADPH, UDPGA and acetyl CoA, fourteen Phase I metabolites (M1, M6, M8, M12, M13, M14, M15, M16, M17, M18, M20, M21, M22 and M23) and six Phase II metabolites (M2, M3, M5, M7, M9 and M10) were observed. In incubations without cofactors, no metabolites were observed.
LC/MS analysis was conducted on extracts of mouse, rat, monkey and human liver microsomes and S9. The mass spectral data for the characterized COMPOUND I metabolites are discussed below.

[2] = In vivo metabolism and excretion of [14C]COMPOUND I in male beagle dogs, single oral 3 mg/kg dose; design: species or system dog; conditions: 3 mg/kg oral
Procedure: Dose preparation, animal dosing, and specimen collection were performed at Wyeth Research, Collegeville, Pa. The vehicle contained 2% (w/v) polysorbate 80, NF and 0.5% (w/v) methylcellulose (4000 cps) in water. [^14C]COMPOUND I trisuccinate salt (50.25 mg) and non-labeled COMPOUND I trisuccinate salt (331.9 mg) were suspended in 72 mL of the vehicle by grinding with a mortar and a pestle. The target [^14C]COMPOUND I concentration was approximately 3 mg/mL as free base and 48 μCi/mL with a target specific activity of 16 μCi/mg. Three pre- and post-dose aliquots (100 μL) were taken for the determination of radiochemical purity, drug and radioactivity concentrations and specific activity (see below).
Four male beagle dogs, weighing from 9.4 to 11.5 kg at the time of dosing, were from an in-house colony. Non-fasted dogs were given a single 3 mg/kg (approximately 48 μCi/kg) dose of [^14C]COMPOUND I at a volume of 1 mL/kg via intragastric gavage. Animals were provided Purina dog chow and water ad libitum, and were housed individually in metabolic cages.
Blood samples were collected from the jugular vein at 1, 4, 8, 24, 48, 72 and 120 hr after dose administration into tubes containing potassium EDTA as the anticoagulant and then placed on ice. Aliquots of 200 μL were removed and plasma was harvested immediately from the remaining blood by centrifugation at 4° C. Urine samples were collected into tubes on dry ice from 0-24 and 24-48 hr, and then at ambient temperature at 24 hr intervals for 7 days post-dose. Fecal samples were collected at 24 hr intervals for 7 days post-dose at room temperature. Cage rinses were collected daily by rinsing each cage with approximately 500 mL of 30% ethanol in water. The dose aliquots and biological specimens were stored at approximately −70° C. until analysis.
Triplicate aliquots of diluted dose (20 μL), dose fractions (10 μL) and plasma (50 μL), urine (200 μL) and cage wash (500 μL) from individual dogs were analyzed for radioactivity content. The samples were assayed in a Tri-Carb Model 3100TR liquid scintillation counter (Perkin Elmer) using 5 mL of Ultima Gold scintillation cocktail.
Fecal samples from individual dogs were weighed and homogenized in water at a volume-to-weight ratio of about 4:1 with a Silverson sealed-unit homogenizer at ambient temperature. Triplicate aliquots of whole blood (50 μL) and fecal homogenates (approximately 0.2 g) were placed into Combusto-cones with Combusto-pads and allowed to dry overnight. Samples were combusted with a model 307 Tri-Carb Sample Oxidizer, equipped with an Oximate-80 Robotic Automatic Sampler (Perkin Elmer). The liberated ^14CO2 was trapped with Carbo-Sorb® E carbon dioxide absorber, mixed with PermaFluor® E+liquid scintillation cocktail, and counted in a Tri-Carb Model 3100 TR/LL liquid scintillation counter.
Plasma samples were pooled by mixing equal volumes from four animals at each time point (1, 4, 8 and 24 hr). Aliquots of 2.0 mL of pooled plasma were mixed with 2.0 mL of acetonitrile, placed on ice for about 10 min, and then centrifuged at 4° C. The supernatant was transferred to a clean tube. The protein pellets were extracted two more times with 2.0 mL of acetonitrile. The supernatants from precipitation and extraction of each sample were pooled, mixed, and evaporated at 22° C. under nitrogen in a TurboVap LV evaporator (Caliper Life Sciences, Hopkinton, Mass.) to about 0.8 mL. The concentrated extract was centrifuged, the supernatant volume measured and the extraction efficiency was determined by analyzing duplicate 10 μL aliquots for radioactivity concentrations. For metabolite profiling, an aliquot of the supernatant (200 μL) was injected onto the HPLC column as described hereinbelow, and fractions were collected at 20 second intervals into 96-well Lumaplates (Perkin Elmer).

[3] = Turnover to metabolites in cryopreserved hepatocytes; conditions: 100 μM, 1 hr
Procedure: Chromatographic analyses were performed with a Waters Alliance model 2695 HPLC system (Waters Corp., Milford, Mass.) that was equipped with a built-in autosampler. The column eluent was monitored with a model 996 diode array UV detector, set to monitor 250 nm, and a FloOne β Model A525 radioactivity flow detector (Perkin Elmer) with a 250 μL flow cell. Separation of the parent compound from metabolites was accomplished using a Discovery C18 column, 250×4.6 mm, 5 μm (Supelco, Bellefonte, Pa.) at an ambient temperature of approximately 20° C. Mobile phase A was 10 mM ammonium acetate (pH 4.5) and mobile phase B was acetonitrile and they were delivered at 1 mL/min using the gradient described in Table 10. The Ultima Flo M scintillant flow rate was 3 mL/min.
Flo-One analytical software (version 3.65) was utilized to integrate the radioactive peaks. Means and standard deviations were calculated using Microsoft Excel® 2000. Micromass MassLynx software (version 4.0, Waters Corp.) was used for control of LC/MS equipment and recording of data from LC/MS analyses.

[4] = In vivo metabolism of [14C]COMPOUND I in Sprague-Dawley rats, single oral 5 mg/kg dose; design: species or system rat; conditions: for Chromatographic Distribution of Radioactivity in Pooled Plasma Samples: 5 mg/kg oral [14C]COMPOUND I
Procedure: Dose preparation, animal dosing, and specimen collection were performed at Wyeth Research, Collegeville, Pa. The vehicle contained 2% (w/v) polysorbate 80, NF and 0.5% (w/v) methylcellulose (4000 cps) in water. [^14C]COMPOUND I trisuccinate salt (36.6 mg) and non-labeled COMPOUND I trisuccinate salt (26.7 mg) were dissolved in 1 mL of ethanol and suspended in 35 mL of the vehicle with stirring. The target [^14C]COMPOUND I concentration was approximately 1 mg/mL as free base and 70 μCi/mL with a target specific activity of 70 μCi/mg. Three pre- and post-dose aliquots (100 μL) were taken for the determination of radiochemical purity, drug and radioactivity concentrations and specific activity (see below).
Male rats weighing from 323 to 354 g and female rats weighing from 270 to 317 g at the time of dosing were purchased from Charles River Laboratories (Wilmington, Mass.). Non-fasted rats were given a single 5 mg/kg (˜350 μCi/kg) dose of [^14C]COMPOUND I at a volume of 5.0 mL/kg via intragastric gavage. Three rats were dosed for each time point. Animals were provided Purina rat chow and water ad libitum, and were kept individually in metabolism cages.
Blood samples were collected at 1, 3, 6 and 24 hr from male rats and at 1 and 3 hr from female rats after dose administration by cardiac puncture into tubes containing EDTA as the anticoagulant and placing them on ice. Triplicate aliquots (50 μL) of whole blood were removed and plasma was immediately obtained from the remaining blood by centrifugation at 4° C. Whole brain samples were collected after saline perfusion at 1, 3, 6 and 24 hr post-dose from male rats and at 1 and 3 hr post-dose from female rats. Urine samples were collected on dry ice from male rats at intervals of 0-6 and 6-24 hr post-dose. Feces were collected from male rats at 0-24 hr post-dose at room temperature. The biological specimens and aliquots of the dose suspension were stored at approximately −70° C. until analysis.
Triplicate aliquots of diluted dose (20 μL), dose fractions (10 μL), and plasma (50 μL) and urine (100 μL) from individual rats were analyzed for radioactivity concentrations. Radioactivity determinations were made with a Tri-Carb Model 3100 TR liquid scintillation counter (LSC) (Perkin Elmer) using 5 mL of Ultima Gold as the scintillation fluid.
Brain and fecal samples from individual rats were weighed and homogenized in water at a volume-to-weight ratio of about 3:1 and 5:1, respectively, with a Polytron PT homogenizer at ice-cold temperature. Duplicate aliquots of blood (50 μL), brain homogenates (0.2 g) and fecal homogenates (0.2 g) were placed on Combusto-cones with Combusto-pads and allowed to dry overnight. Samples were combusted with a model 307 Tri-Carb Sample Oxidizer, equipped with an Oximate-80 Robotic Automatic Sampler (Perkin Elmer). The liberated ^14CO2 was trapped with Carbo-Sorb E carbon dioxide absorber, mixed with PermaFluor® E^+ liquid scintillation cocktail, and counted in a Tri-Carb Model 3100 TR/LL liquid scintillation counter (Perkin Elmer).
Plasma samples were pooled by equal volumes from three animals at each time point (1, 3, 6 and 24 hr for males; 1 and 3 hr for females). Aliquots of 2 mL of pooled plasma were mixed with 2 mL of acetonitrile, placed on ice for about 10 min, and then centrifuged at 4° C. The supernatant was transferred to a clean tube. The protein pellets were extracted two more times with 4 mL of acetonitrile. The supernatants from precipitation and extraction of each sample were pooled, mixed, and evaporated at 22° C. under nitrogen in a TurboVap LV evaporator (Caliper Life Sciences, Hopkinton, Mass.) to about 1.0 mL. The concentrated extract was centrifuged, the supernatant volume measured and the extraction efficiency was determined by analyzing duplicate 10 μL aliquots for radioactivity concentrations.

For O=C1C=C(N2CCN(C3CCN(c4ccc(F)c5cccnc45)CC3)CC2)c2ncccc2C1=O [Metabolite M23, Desmethyl COMPOUND I quinone], the “Species (in which the metabolite was characterized)” value (“Species” for short) [1] was “R, D, M, H”.
In the case of O=S(=O)(O)Oc1cc(N2CCN(C3CCN(c4ccc(F)c5cccnc45)CC3)CC2)c2ncccc2c1 [Metabolite M24, O-Desmethyl COMPOUND I sulfate], the Source ([2]; P, plasma, F, feces) is reported as “P, F”, the “percent of total fecal radioactivity” value ([2]; pooled 0-24 hr fecal sample) is reported as 4.6% and the “percent of total fecal radioactivity” value ([2]; pooled 24-48 hr fecal sample) is reported as 19.3%.
In the case of COC1=CC(=O)c2ncccc2C1=O [Metabolite M1, 6-Methoxy-quinoline-5,8-dione], the “Species” value [1] is reported as “R, D, M, H”.
In the case of COc1cc(N2CCN(C3CCN(C4=CC(=O)C(=O)c5cccnc54)CC3)CC2)c2ncccc2c1 [Metabolite M16, Desfluoro COMPOUND I quinone], the “Species” value [1] is reported as “R, M, H”.
For “[^14C]7-Ethoxycoumarin [reference compound]”, the “turnover (positive control)” value ([3]; dog hepatocytes) was 9%, the “turnover (positive control)” value ([3]; human hepatocytes) was 6% and the “turnover (positive control)” value ([3]; rat hepatocytes) was 10%.
With “Methoxyquinolinyl-piperazine [Metabolite P1]” the “Species” value [1] was “R, D, M, H”.
For O=C(O)C1OC(Oc2cc(N3CCN(C4CCN(c5ccc(F)c6cccnc56)CC4)CC3)c3ncccc3c2)C(O)C(O)C1O (stereo not shown) [Metabolite M11, O-Desmethyl COMPOUND I glucuronide], the “Chromatographic Distribution of Radioactivity in Pooled Plasma Samples” value (shortened to “Chromatographic Distribution”) ([4]; female rats, 1 hr) was 56.8%, the “Chromatographic Distribution” value ([4]; female rats, 3 hr) was 48.2% and the “percent of total plasma radioactivity” value ([4]; male and female rats, range over time points, 5 mg/kg oral) was 41.3-56.8%. The “Chromatographic Distribution” value ([4]; male rats, 1 hr) was 52.9%, the “Chromatographic Distribution” value ([4]; male rats, 3 hr) was 43.1% and the “Chromatographic Distribution” value ([4]; male rats, 6 hr) was 41.3%.
